In US4339442A, “Gynosaponins, their use and a process for preparing the same” (priority 1980, dated 1982):

Experiments:
Type in all cases: cell-based, male wister rats
fat cells [1] = test: Decomposition of the fat in the fat cell by ACTH; settings: 37° C., two hours; for inhibition at 20 µg/mL: Rattus norvegicus, 2 h, read-out: Rate of inhibition
Experimental: (§1) Fat tissues were separated from the epididymides of male wister rats weighing 150 to 180 g each, and fat cells were obtained therefrom in accordance with the Rodbell's method [M. Rodbell, J. Biol. Chem., 239, 375 (1964)]. A small section was prepared from 4 g of the fat tissue, and placed in 10 ml. of Krebs-Ringer bicarbonate buffer containing 0.4 g of albumin, 10 mg of collagenase and 5 mg of glucose, and having a pH value of 7.4. It was heated at 37° C. for 50 minutes, and subjected to centrifugal separation at 300 rpm, whereby a floating fat cell layer was separated. Added into the fat cell were 10 ml. of the aforesaid buffer (pH 7.4), and the solution was carefully stirred to wash the fat cell, followed by centrifugal separation at 300 rpm for 30 seconds. This procedure was repeated twice, whereby the fat cells were washed perfectly, and these fat cells were used for the tests.
The fat cells obtained by treating with collagenase were suspended in Krebs-Ringer bicarbonate buffer (KRB) having a pH value of 7.4. Placed into a test tube were 0.3 ml. of the solution thus obtained (containing 100 mg of fat cells), 0.1 ml. of ACTH solution containing 1 μg of ACTH, 0.1 ml. of each saponin solution containing 500 μg of saponin, and 0.3 ml. of a 5% alubumin solution in KRB, and having a pH value adjusted to 7.4. They were heated at 37° C. for two hours, and the amount of the resulting free fatty acid was determined in accordance with the Dole's method [V. P. Dole, J. Biol. Chem., 35, 150 (1958)].
Namely, 3 ml. of Dole's extract were separated into the reaction system, and 1 ml. of a thymol blue solution was added thereinto. Nitrogen was blown into the resulting solution, and the solution was titrated with a 0.008 N aqueous solution of sodium hydroxide, while it was being stirred. The amount of the resulting free fatty acid was determined in accordance with a calibration curve.
The rate of inhibition against fat decomposition was obtained in accordance with the following equation: [formula] wherein A stands for the amount of the free fatty acid formed by addition of ACTH along in the amount of 1 μg/ml.; and B stands for the amount of the free fatty acid formed by addition of ACTH and saponin in the amount of 1 μg/ml. and 20 μg/ml., respectively.

fat cells [2] = test: Synthesis of fat from glucose in fat cells; settings: 20 μg/ml; for Power for synthesis of neutral fat from glucose: 37° C., half an hour; for Rate of promotion / activation at 20 µg/mL: none = 100; for activation at 20 µg/mL: Rattus norvegicus, 0.5 h, read-out: Rate of promotion
Experimental: as §1
^14 C-glucose having its carbon atoms marked with radioactivity was reacted upon fat cells, and a Geiger count was read to determine the amount of the glucose participating in the fat synthesis and incorporated into the fat cells as a neutral fat, whereby gynosaponins were tested for their effects on the power of the glucose for fat synthesis.
More specifically, the fat cells obtained by treating with collagenase were suspended in KRB, and 0.35 ml. of the resulting solution containing 100 mg of fat cells was placed into a test tube with 0.1 ml. of each saponin solution containing 20 μg of saponin, 0.5 ml. of a 5% albumin solution in KRB, containing 10 mM glucose and having a pH value of 7.4, and 0.05 ml. of a ^14 C-glucose solution which was a 0.5 μCi KRP solution having a pH value of 7.4 and containing 10 mM glucose. They were heated at 37° C. for half an hour, and after 5 ml. of Dole's extract were added and the whole was shaked for five minutes, 3 ml. of heptane and 2 ml. of water were added, and the whole was shaked for five minutes. 3 ml. of a heptane layer were separated, and after an alkaline ethanol solution (0.5 N sodium hydroxide solution, 50 % ethanol solution) was added in the amount of 3 ml., the whole was shaked for five minutes. Then, 1 ml. of an ethanol layer was separated, and 10 ml. of a toluene scintillation solution were added thereinto, followed by determination according to the method of Skipski et al. [Biochem. Biophys. Acta, 106, 386 (1965)].

fat cells [3] = test: Decomposition by adrenalin of the fat in the fat cells; settings: adrenalin 1 μg/ml + saponin 20 μg/ml, 37° C., two hours; for inhibition at 20 µg/mL: Rattus norvegicus, 2 h, read-out: Rate of inhibition
Experimental: A small section was prepared from 4 g of the fat tissue, and placed in 10 ml. of Krebs-Ringer bicarbonate buffer containing 0.4 g of albumin, 10 mg of collagenase and 5 mg of glucose, and having a pH value of 7.4. […] Added into the fat cell were 10 ml. of the aforesaid buffer (pH 7.4), and the solution was carefully stirred to wash the fat cell, followed by centrifugal separation at 300 rpm for 30 seconds. This procedure was repeated twice, whereby the fat cells were washed perfectly, and these fat cells were used for the tests.
The fat cells obtained by treating with collagenase were suspended in Krebs-Ringer phosphate buffer (KRP) having a pH value of 7.4. Placed into a test tube were 0.3 ml. of the solution thus obtained, and containing 100 mg of fat cells, 0.1 ml. of an adrenalin solution containing 1 μg of adrenalin, 0.1 ml. of a saponin solution containing 20 μg of saponin, and 0.5 ml. of a 5% albumin solution in KRP, and having a pH value adjusted to 7.4. […] More specifically, 3 ml. of Dole's extract were placed in the reaction system, and after they were shaked for five minutes, 3 ml. of heptane were dispensed, and 1 ml. of a thymol blue solution was added thereinto. The resulting solution was titrated with a 0.008 N aqueous solution of sodium hydroxide, while it was being stirred with nitrogen, and the amount of the resulting free fatty acid was determined in accordance with a calibration curve.
The rate of inhibition was obtained in accordance with the equation shown at (1) above.

[4] = ACTH 1 μg/ml + saponin 20 μg/ml

Molecule	Free fatty acid formed by decomposition of fat (fat cells [1]; [4]) [μ Eq/g]	Rate of inhibition (fat cells [1]; [4]) [%]	Power for synthesis of neutral fat from glucose (fat cells [2])	Rate of promotion (fat cells [2]) [%]	Free fatty acid formed by decomposition of fat (fat cells [3]) [μ Eq/g]	Rate of inhibition (fat cells [3]) [%]	inhibition at 20 µg/mL (fat cells [1]; [4]) [%]	activation at 20 µg/mL (fat cells [2]) [%]	inhibition at 20 µg/mL (fat cells [3]) [%]	Free fatty acid formed by decomposition of fat (fat cells [1]; ACTH alone, 1 μg/ml) [μ Eq/g]
20S-Protopanaxadiol-3-O-{[β-D-glucopyranosyl (1→2)-α-L-rhamnopyranosyl (1→6)]-β-D-glucopyranoside}-20-O-[β-D-glucopyranosyl (1→6)-β-D-glucopyranoside] [gynosaponin A]	6.1	27	8,013 cpm/g	37	13.4	5				
CC(=CCC[C@](C)(O[C@@H]1O[C@H](CO[C@@H]2OC[C@@H](O)[C@H](O)[C@H]2O)[C@@H](O)[C@H](O)[C@H]1O)[C@H]1CC[C@]2(C)[C@@H]1[C@H](O)C[C@@H]1[C@@]3(C)CC[C@H](O)C(C)(C)[C@@H]3CC[C@]12C)CO [gynosaponin U, 20S,26-Hydroxyprotopanaxadiol-20-O-[β-D-xylopyranosyl (1→6)-β-D-glucopyranoside]]	5.6		13,100 cpm/g		13.8		33	61	2	
CC(C)=CCC[C@](C)(O[C@@H]1O[C@H](CO[C@@H]2O[C@@H](C)[C@H](O)[C@@H](O)[C@H]2O)[C@@H](O)[C@H](O)[C@H]1O)[C@H]1CC[C@]2(C)[C@@H]1[C@H](O)C[C@@H]1[C@@]3(C)CC[C@H](O[C@@H]4O[C@H](CO[C@@H]5O[C@@H](C)[C@H](O)[C@@H](O)[C@H]5O)[C@@H](O)[C@H](O)[C@H]4O)C(C)(C)[C@@H]3CC[C@]12C [gynosaponin G, 20S-Protopanaxadiol-3,20-bis-O-[α-L-rhamnopyranosyl (1→6)-β-D-glucopyranoside]]	5.8		8,925 cpm/g		13.8		31	42	2	
CC(C)=CCC[C@](C)(O[C@@H]1O[C@H](CO[C@@H]2O[C@@H](C)[C@H](O)[C@@H](O)[C@H]2O)[C@@H](O)[C@H](O)[C@H]1O)[C@H]1CC[C@]2(C)[C@@H]1[C@H](O)C[C@@H]1[C@@]3(C)CC[C@H](O[C@@H]4O[C@H](CO)[C@@H](O)[C@H](O)[C@H]4O)C(C)(C)[C@@H]3CC[C@]12C [gynosaponin J, 20S-Protopanaxadiol-3-O-β-D-glucopyranoside-20-O-[α-L-rhamnopyranosyl (1→6)-β-D-glucopyranoside]]	5.3		11,650 cpm/g		13.1		37	54	7	
CC(C)=CCC[C@](C)(O[C@@H]1O[C@H](CO)[C@@H](O)[C@H](O)[C@H]1O)[C@H]1CC[C@]2(C)[C@@H]1[C@H](O)C[C@@H]1[C@@]3(C)CC[C@H](O[C@@H]4O[C@H](CO[C@@H]5O[C@@H](C)[C@H](O)[C@@H](O)[C@H]5O)[C@@H](O)[C@H](O)[C@H]4O)C(C)(C)[C@@H]3CC[C@]12C [gynosaponin K, 20S-Protopanaxadiol-3-O-[α-L-rhamnopyranosyl (1→6)-β-D-glucopyranoside]-20-O-β-D-glucopyranoside]	6.1		13,600 cpm/g		13.8		27	63	2	
CC(C)=CCC[C@](C)(O[C@@H]1O[C@H](CO[C@@H]2O[C@@H](C)[C@H](O)[C@@H](O)[C@H]2O)[C@@H](O)[C@H](O)[C@H]1O)[C@H]1CC[C@]2(C)[C@@H]1[C@H](O)C[C@@H]1[C@@]3(C)CC[C@H](O[C@@H]4O[C@H](CO)[C@@H](O)[C@H](O)[C@H]4O[C@@H]4O[C@H](CO)[C@@H](O)[C@H](O)[C@H]4O)C(C)(C)[C@@H]3CC[C@]12C [gynosaponin E, 20S-Protopanaxadiol-3-O-[β-D-glucopyranosyl (1→2)-β-D-glucopyranoside]-20-O-[α-L-rhamnopyranosyl (1→6)-β-D-glucopyranoside]]	5.9		10,248 cpm/g		9.4		30	48	33	
CC(=CCCC(C)(OC1OC(COC2OC(C)C(O)C(O)C2O)C(O)C(O)C1O)C1CCC2(C)C1C(O)CC1C3(C)CCC(OC4OC(CO)C(O)C(O)C4OC4OC(CO)C(O)C(O)C4O)C(C)(C)C3CCC12C)CO [gynosaponin P, 20S,26-Hydroxyprotopanaxadiol-3-O-[β-D-glucopyranosyl (1→2)-β-D-glucopyranoside]-20-O-[α-L-rhamnopyranosyl (1→6)-β-D-glucopyranoside]]	6.6		8,165 cpm/g		12.7		21	38	10	
20S-Protopanaxadiol-3-O-{[β-D-glucopyranosyl (1→2)-α-L-rhamnopyranosyl (1→6)]-β-D-glucopyranoside} [progynosapogenin A--AH]	6.3	25	10,550 cpm/g	49	12.4	12				
ACTH: ACTH, used at 1 μg/ml to decompose fat in fat cells (SYSMEHFRWGKPVGKKRRPVKVYPNGAEDESAEAFPLEF; Corticotropin; UniProt P01189 138-176, looked up) [reference compound]										8.4
